Measured values: patent US20240158756A1, “FEEDER-BASED AND FEEDER-FREE STEM CELL CULTURE SYSTEMS FOR STRATIFIED EPITHELIAL STEM CELLS, AND USES RELATED THERETO” (University of Houston System, priority 2019, published 2024)

Assays:
ALK5 (TGF-β RI) = biological target: T1, ALK5 (TGF-β RI) (Homo sapiens, UniProt P36897); settings: high concentrations, approximate; cited from earlier work
T1 sequence (P36897 34-503): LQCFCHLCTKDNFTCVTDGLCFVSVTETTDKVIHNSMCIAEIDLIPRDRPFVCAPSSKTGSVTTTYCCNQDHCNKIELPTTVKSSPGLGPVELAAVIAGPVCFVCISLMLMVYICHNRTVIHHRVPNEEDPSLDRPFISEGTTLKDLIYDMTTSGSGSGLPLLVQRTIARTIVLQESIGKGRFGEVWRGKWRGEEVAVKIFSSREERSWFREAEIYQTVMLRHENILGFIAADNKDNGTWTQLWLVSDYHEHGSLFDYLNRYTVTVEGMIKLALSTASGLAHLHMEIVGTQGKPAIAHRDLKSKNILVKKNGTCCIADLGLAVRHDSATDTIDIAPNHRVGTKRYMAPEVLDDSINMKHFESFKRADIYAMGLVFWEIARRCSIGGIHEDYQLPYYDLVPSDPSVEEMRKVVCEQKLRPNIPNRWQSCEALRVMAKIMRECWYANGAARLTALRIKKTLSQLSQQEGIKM

[1] = tested on: epithelial stem cells derived from human tissues or other mammals; test: Feeder-free epithelial stem cell culture; assay type: cell-based
Text: (§1) Another illustrative system is a medium referred to as SGM-63+. The SGM-63+ medium has been tested and proven to support robust growth of epithelial stem cells derived from human tissues or other mammals in the absence of the irradiate feeder of mouse fibroblast cells (3T3-J2). For example, lung stem cells, esophagus stem cell, bladder stem cells and ovarian cancer stem cells, can all grow robustly in this culture system that comprises SGM-63+ medium without the need of irradiated 3T3-J2 feeders in the illustrated example.
(§2) The base medium comprises DMEM, F12, FBS, L-glutamine, Adenine, Pen/Strep, Insulin, T3, Hydrocortisone, EGF and is further added a Rock inhibitor, TGF-beta inhibitor, BMP4 inhibitor, VEGF inhibitor, TrkA inhibitor, Ponatinib, CK2 inhibitor, Syk inhibitor, LPA Receptor antagonist, Oct 4-activating compound 1, GSK3 inhibitor and FGF10. […] R-spondin was found not required to support the self-renewal and multipotency of stratified epithelial stem cells.

[2] = tested on: epithelial stem cells derived from human tissues or other mammals; test: Epithelial stem cell culture on irradiated 3T3-J2 feeder; settings: feeder-based medium
Text: as §1, with “An” for “Another”, “SQM.” for “SGM-63+.”, “SQM” for “SGM-63+”, “presence” for “absence”, “SQM medium, along with” for “SGM-63+ medium without the need of”
as §2, with “Ponatinib” for “Ponatinib, CK2 inhibitor, Syk inhibitor, LPA Receptor antagonist, Oct 4-activating compound 1, GSK3 inhibitor”

| Compound | concentration at which ALK5 may be inhibited (ALK5 (TGF-β RI)) [µM] | effect of inclusion in the medium on epithelial stem cell self-renewal [1] | effect of inclusion in the medium on epithelial stem cell self-renewal [2] |
| --- | --- | --- | --- |
| 4-[5-(4-Fluorophenyl)-2-[4-(methylsulfonyl)phenyl]-1H-imidazol-4-yl]pyridine [SB-203580] | ≥ 10 |  |  |
| jagged1: Notch agonist, surface-bound or secreted Notch ligand |  | induce the abortion of some epithelial stem cell (lung, esophagus etc) self-renewal | induce the abortion of some epithelial stem cell (lung, esophagus etc) self-renewal |
| NC(=O)c1cccnc1 [nicotinamide] |  | induce the abortion of some epithelial stem cell (lung, esophagus etc) self-renewal | induce the abortion of some epithelial stem cell (lung, esophagus etc) self-renewal |
